System: T1, lipase from Bacillus cereus ATA179
T1 construct: gene extracellular lipase; 47 kDa by SDS-PAGE
Assay: lipase activity at varied tributyrin, Lineweaver-Burk plot
Format: biochemical
Conditions: tributyrin 0.1-1.2 mM; partially purified enzyme; pH and temperature of the kinetic assay not given

Compound: CCCC(=O)OCC(COC(=O)CCC)OC(=O)CCC [tributyrin]
- Km: 110 µM

From publication PMC8313942, “Lipase from new isolate Bacillus cereus ATA179: optimization of production conditions, partial purification, characterization and its potential in the detergent industry” (Turkish Journal of Biology, 2021)
